Experiments:
Fibronectin = Fibronectin gene expression by RT-PCR in fibroblasts; assay type: cell-based, mouse; details: NIH3T3 cells, peptide 1, 10, 50 μM, 24 hours; FIGS. 1A, 1C
Description: First, NIH3T3 cells (mouse fibroblast cell line) were seeded in a 6-well plate at a cell density of 3×10^5 cell/well, and then the cells were cultured in DMEM medium containing 10% fetal bovine serum (FBS) for 24 hours. The cultured cells were washed once with serum free DMEM medium, and the peptide of the present invention was mixed in 1 mL of the serum free DMEM medium at each of concentrations of 1, 10, and 50 μM, and dispensed into the cells. A positive control (PC) was treated with 5 ng/ml of TGF-β1 instead of the above peptide. The cells were cultured in a CO2 incubator at 37° C. for 24 hours.
The cultured cells were washed twice with PBS, and RNA was extracted from the cells using easy blue (iNtRON, Cat. No.: 17061, Korea). The amount of RNA extracted was quantified, 1,000 ng of RNA was added per tube, and RT reaction was performed using a kit (enzynomics, Cat. No.: PT200, Korea). RT-PCR was performed using a PCR kit (enzynomics, Cat. No.: […], Korea). The sequences of the primers of collagen, fibronectin, and elastin used in RT-PCR and the sequence of the primer of GAPDH used to compare the total RNA amount of each treatment group are shown in [Table 2].

Elastin = Elastin mRNA level decreased by UV irradiation, RT-PCR in fibroblasts; assay type: cell-based, mouse; details: NIH3T3 cells, 8 J/cm^2 UVA, peptide 1, 10, 50 μM, 6 hours after irradiation; FIGS. 5A, 5D
Description: The expression of genes related to extracellular matrix components is inhibited when irradiated with UV.
First, NIH3T3 cells were seeded in a 6-well plate at a cell density of 5×10^5 cell/well, and then the cells were cultured in DMEM medium containing 10% fetal bovine serum (FBS) for 24 hours. The cultured cells were washed once with serum free DMEM medium, and then the peptide of the present invention was mixed in 1 mL of the serum free DMEM medium at each of concentrations of 1, 10, and 50 μM, and dispensed into the cells. A positive control (PC) was treated with 50 μM of Quercetin instead of the above peptide. The cells were cultured in a CO2 incubator at 37° C. for 1 hour.
The medium of the cultured cells was transferred to a tube (e-tube), 1 ml of PBS was added, and irradiation was performed with 8 J/cm^2 of UVA using a UV irradiator (VILBER LOURMAT, Cat No.: 3102-BSU, France). After removing PBS, 900 μL of the medium transferred to the tube was dispensed, and culture was performed in a CO2 incubator at 37° C. for 6 hours. The cultured cells were washed twice with PBS, and then RNA was extracted from the cells using easy blue (iNtRON, Cat. No.: 17061, Korea). The amount of RNA extracted was quantified, 1,000 ng of RNA was added per tube, and RT reaction was performed using a kit (enzynomics, Cat. No.: RT200, Korea). […]

In the case of LCACCLHNCNECQ, the “expression of the fibronectin gene” value (Fibronectin) is reported as “gradually increased as a concentration of the peptide increased” and the “mRNA level of elastin decreased by UV irradiation” value (Elastin) is reported as “increased again”.

— patent US20240407993A1, “PEPTIDE HAVING ANTI-AGING ACTIVITY, AND USE THEREOF” (CAREGEN CO., LTD., priority 2021, published 2024)
